Assay results: patent publication US11779567B2, “Method for optimizing 5-hydroxytryptamine function in the brain for therapeutic purposes” (Evecxia Therapeutics, Inc., priority 2021, dated 2023)

Assay: Plasma escitalopram levels in Phase 1 study
Format: in vivo, human
Settings: for Escitalopram plasma levels, Average Day 21-23 / concentration at 21 day / concentration at 22 day / concentration at 23 day: 20 mg/day oral; for Escitalopram plasma levels, Average Day 21-23 / concentration at 7 day / concentration at 21 day / concentration at 22 day / concentration at 23 day: mean ± SEM; for concentration at 7 day / concentration at 21 day / concentration at 22 day / concentration at 23 day: both sexes, human, plasma; for concentration at 7 day: 10 mg/day, after 10 mg/day oral
Method: Study Design. A Phase 1, randomized, double-blind, placebo-controlled, single ascending dose study was performed to evaluate the safety, tolerability and pharmacokinetics (PK) of 5-HTP solution for IV infusion when administered to healthy adults taking a selective serotonin reuptake inhibitor (SSRI), escitalopram, for 3 weeks. Study duration was 37±3 days. The total individual subject participation time was no more than 66 days including screening, dosing, and follow-up phases. The IV infusion duration was 24 h, dosing with 5-HTP solution for IV infusion (see Example 3, above) or placebo (0.9% saline).
Pre-treatment with escitalopram. All subjects received pretreatment with escitalopram for 3 weeks prior to and during the 24 h IV infusion. A supply of escitalopram was provided for self-administration at a dose of 10 mg/day for 7 days. On Day 7 subjects were evaluated for general health and tolerability of escitalopram. Escitalopram compliance confirmation was evaluated by taking a blood draw for escitalopram plasma level measurements and by monitoring pill count using a diary. On Day 7 the subjects received a supply of 20 mg escitalopram tablets and self-administered 20 mg/day until Day 20 when they were admitted to the impatient clinic. Escitalopram was co-administered orally on Day 21-23 by clinical staff. Escitalopram treatment was tapered from 20 mg/day to 10 mg/day after the end of the infusion and continued for 8 days.
Bioanalysis. Plasma samples for 5-HTP analysis were collected and stored at −80° C. Plasma samples for escitalopram analysis were collected and stored at −80° C. Plasma 5-HTP levels and plasma escitalopram levels were measured using standard liquid chromatography with tandem mass spectrometry (LC-MS-MS) methods. For 5-HTP analysis, plasma samples were collected at T=0, 1, 2, 3, 4, 5, 6, 8, 10, 12, 14, 22, 24, 26, 28, 30, 32, 36, and 48 hr. For escitalopram analysis, plasma samples were collected on Day 7, Day 21 (pre-infusion), Day 22 (end of infusion), and Day 23 (24 hr after end of infusion). Plasma escitalopram levels were averaged across days 21-23, during the time-period when subjects were admitted to the clinic and received 5-HTP solution for IV infusion or placebo.
PK analysis of plasma escitalopram. Plasma escitalopram levels across Days 21-23 were averaged for each subject, and statistical analysis by one-way ANOVA for cohort differences executed using GraphPad Prism version 9.4.1.

[1] = oral, Cohort 1 (5-HTP 1 mg/kg, Constant)
[2] = oral, Cohort 2 (5-HTP 3 mg/kg, Constant)
[3] = oral, Cohort 3 (5-HTP 3 mg/kg, Ramped)
[4] = oral, 20 mg/day, Cohort 4 (5-HTP 2 mg/kg, Ramped)
[5] = oral, 20 mg/day, Cohort 5 (5-HTP 1 mg/kg, Ramped)
[6] = po, 20 mg/day, Cohorts 1-5 pooled, placebo infusion instead of 5-HTP, N=10

- Escitalopram plasma levels, Average Day 21-23 (Cohort 1 (5-HTP 1 mg/kg, Constant)): 39.7 ± 8.9 ng/mL
- Escitalopram plasma levels, Average Day 21-23 (Cohort 2 (5-HTP 3 mg/kg, Constant)): 25.6 ± 6.5 ng/mL
- Escitalopram plasma levels, Average Day 21-23 (Cohort 3 (5-HTP 3 mg/kg, Ramped)): 39.1 ± 4.8 ng/mL
- Escitalopram plasma levels, Average Day 21-23 (Cohort 4 (5-HTP 2 mg/kg, Ramped)): 29.2 ± 6.2 ng/mL
- Escitalopram plasma levels, Average Day 21-23 (Cohort 5 (5-HTP 1 mg/kg, Ramped)): 24.4 ± 5.0 ng/mL
- Escitalopram plasma levels, Average Day 21-23 (Cohorts 1-5 pooled, placebo infusion instead of 5-HTP, N=10): 44.0 ± 8.2 ng/mL
- average plasma escitalopram levels, range across treatment groups (Days 21-23, 20 mg/day oral): 24 to 44 ng/mL
- concentration at 7 day [1]: 0.0193 ± 0.0031 µg/mL
- concentration at 7 day [2]: 0.0101 ± 0.0015 µg/mL
- concentration at 7 day [3]: 0.017 ± 0.0023 µg/mL
- concentration at 7 day (oral, Cohort 4 (5-HTP 2 mg/kg, Ramped)): 0.0142 ± 0.0025 µg/mL
- concentration at 7 day (oral, Cohort 5 (5-HTP 1 mg/kg, Ramped)): 0.0114 ± 0.0023 µg/mL
- concentration at 21 day (oral, 20 mg/day, Cohort 1 (5-HTP 1 mg/kg, Constant)): 0.0398 ± 0.0123 µg/mL
- concentration at 21 day (oral, 20 mg/day, Cohort 2 (5-HTP 3 mg/kg, Constant)): 0.0225 ± 0.0102 µg/mL
- concentration at 21 day (oral, 20 mg/day, Cohort 3 (5-HTP 3 mg/kg, Ramped)): 0.0435 ± 0.0045 µg/mL
- concentration at 21 day [4]: 0.0285 ± 0.0058 µg/mL
- concentration at 22 day [4]: 0.0288 ± 0.0062 µg/mL
- concentration at 23 day [4]: 0.0303 ± 0.007 µg/mL
- concentration at 21 day [5]: 0.0217 ± 0.0034 µg/mL
- concentration at 22 day [5]: 0.0222 ± 0.0047 µg/mL
- concentration at 23 day [5]: 0.0292 ± 0.0075 µg/mL
- concentration at 22 day [1]: 0.0379 ± 0.0073 µg/mL
- concentration at 23 day [1]: 0.0416 ± 0.0076 µg/mL
- concentration at 22 day [2]: 0.0243 ± 0.0057 µg/mL
- concentration at 23 day [2]: 0.03 ± 0.0037 µg/mL
- concentration at 22 day [3]: 0.0373 ± 0.0059 µg/mL
- concentration at 23 day [3]: 0.0366 ± 0.0041 µg/mL
- concentration at 7 day (po, Cohorts 1-5 pooled, placebo infusion instead of 5-HTP, N=10): 0.0183 ± 0.0031 µg/mL
- concentration at 21 day [6]: 0.0433 ± 0.0084 µg/mL
- concentration at 22 day [6]: 0.0452 ± 0.0091 µg/mL
- concentration at 23 day [6]: 0.0435 ± 0.0075 µg/mL
SMILES: CN(C)CCC[C@@]1(c2ccc(F)cc2)OCc2cc(C#N)ccc21 [Escitalopram, escitalopram]
